Source: patent publication US9814739B2, “2′-ethynyl nucleoside derivatives for treatment of viral infections” (priority 2012, dated 2017)
Like-named read-outs stand apart in the source and are kept apart here.

Experiments:
[1] = tested on: GT1b HCV luciferase replicon; experiment: HCV replicon antiviral EC50 assay; assay type: cell-based, Hepatitis C virus
in vitro = conditions: for CC50: HCV GT1b CC50 (uM)
[2] = tested on: Replicon cells, expressing the GT1b HCV luciferase replicon
[3] = Hepatitis C virus, GT1B, 72 h, read-out: HCV GT1b EC50 (uM)

Row | Structure (SMILES) | EC50 [1, 3] | CC50 (in vitro) | EC50 ([1]; read-out: HCV GT1b EC50) | other results
1 | C#C[C@]1(O)[C@H](n2ccc(=O)[nH]c2=O)O[C@@](CO[P@@](=O)(N[C@@H](C)C(=O)OC(C)C)Oc2ccccc2)(N=[N+]=[N-])[C@H]1O [Example 1.26, (2S)-isopropyl 2-(((((2R,3S,4R,5R)-2-azido-5-(2,4-dioxo-3,4-dihydropyrimidin-1(2H)-yl)-4-ethynyl-3,4-dihydroxytetrahydrofuran-2-yl)methoxy)(phenoxy)phosphoryl)amino)propanoate] | 1.44 µM | > 25 µM |  | 
2 | C#C[C@@]1(O)[C@H](O)[C@@H](COP(=O)(N[C@@H](C)C(=O)O[C@H](C)CC)Oc2ccccc2)O[C@H]1n1ccc(=O)[nH]c1=O (single isomer, unassigned) [1.15 (peak 2)] |  | > 25 µM | 0.029 µM | 
3 | C#C[C@@]1(O)[C@H](O)[C@@H](COP(=O)(N[C@@H](Cc2ccccc2)C(=O)OC(C)C)Oc2ccccc2)O[C@H]1n1ccc(=O)[nH]c1=O (single isomer, unassigned) [1.10 (peak 2)] |  | > 25 µM | 0.023 µM | 
4 | C#C[C@@]1(O)[C@H](O)[C@@H](COP(=O)(N[C@@H](C)C(=O)OC(CCC)CCC)Oc2ccccc2)O[C@H]1n1ccc(=O)[nH]c1=O (single isomer, unassigned) [1.34 (peak 2)] | 0.151 µM | > 25 µM |  | 
5 | C#C[C@@]1(O)[C@H](O)[C@@H](COP(=O)(N[C@@H](CC)C(=O)OC(C)C)Oc2ccccc2)O[C@H]1n1ccc(=O)[nH]c1=O (single isomer, unassigned) [1.38 (peak 1)] |  |  | 0.37 µM | CC50 [2]: > 25 µM
6 | C#C[C@@]1(O)[C@H](O)[C@@H](COP(=O)(N[C@@H](C)C(=O)OCC(C)(C)OC)Oc2ccccc2)O[C@H]1n1ccc(=O)[nH]c1=O (single isomer, unassigned) [1.32 (peak 1)] |  |  | 0.53 µM | CC50 [2]: > 25 µM
7 | C#C[C@@]1(O)[C@H](O)[C@@H](COP(=O)(NC(C)(C)C(=O)OCC)Oc2ccccc2)O[C@H]1n1ccc(=O)[nH]c1=O (single isomer, unassigned) [1.37 (peak 2)] | 0.478 µM | > 25 µM |  | 
8 | C#C[C@@]1(O)[C@H](O)[C@@H](COP(=O)(N[C@@H](C)C(=O)OC2CCCC2)Oc2ccccc2)O[C@H]1n1ccc(=O)[nH]c1=O (single isomer, unassigned) [1.31 (peak 2)] |  | > 25 µM | 0.006 µM | 
9 | C#C[C@@]1(O)[C@H](O)[C@@H](COP(=O)(N[C@@H](C)C(=O)OC(C)C)Oc2ccccc2)O[C@H]1n1ccc(OC)nc1=O (single isomer, unassigned) [1.28 (peak 1)] |  |  | > 100 µM | CC50 [2]: > 25 µM
10 | C#C[C@@]1(O)[C@H](O)[C@@H](COP(=O)(N[C@@H](C)C(=O)OC(C)C)Oc2ccccc2)O[C@H]1n1ccc(OC)nc1=O (single isomer, unassigned) [1.28 (peak 2)] | > 100 µM | > 25 µM |  | 
11 | C#C[C@@]1(O)[C@H](O)[C@@H](COP(=O)(N[C@@H](C)C(=O)OCOC(C)=O)Oc2ccccc2)O[C@H]1n1ccc(=O)[nH]c1=O (single isomer, unassigned) [1.17 (peak 1)] |  |  | 6.8 µM | CC50 [2]: > 25 µM
12 | C#C[C@@]1(O)[C@H](O)[C@@H](COP(=O)(N[C@@H](C)C(=O)O[C@H](C)CC)Oc2ccccc2)O[C@H]1n1ccc(=O)[nH]c1=O (single isomer, unassigned) [1.15 (peak 1)] |  |  | 0.172 µM | CC50 [2]: > 25 µM
13 | C#C[C@@]1(O)[C@H](O)[C@@H](COP(=O)(N[C@@H](C)C(=O)OC2CCC2)Oc2ccccc2)O[C@H]1n1ccc(=O)[nH]c1=O (single isomer, unassigned) [1.11 (peak 2)] | 0.058 µM | > 25 µM |  | 
14 | C#C[C@@]1(O)[C@H](O)[C@@H](COP(=O)(NC(C)(C)C(=O)OC(C)C)Oc2ccccc2)O[C@H]1n1ccc(=O)[nH]c1=O (single isomer, unassigned) [1.39 (peak 1)] |  |  | 1.5 µM | CC50 [2]: > 25 µM
15 | C#C[C@@]1(O)[C@H](O)[C@@H](COP(=O)(N[C@@H](C)C(=O)OCOC(C)=O)Oc2ccccc2)O[C@H]1n1ccc(=O)[nH]c1=O (single isomer, unassigned) [1.17 (peak 2)] | 9.09 µM | > 25 µM |  | 
16 | C#C[C@@]1(O)[C@H](OC(C)=O)[C@@H](COP(=O)(N[C@@H](C)C(=O)OC(C)C)Oc2ccccc2)O[C@H]1n1ccc(=O)[nH]c1=O (stereo partly drawn) [Example 1.21, (2S)-isopropyl 2-(((((2R,3R,4R,5R)-3-acetoxy-5-(2,4-dioxo-3,4-dihydropyrimidin-1(2H)-yl)-4-ethynyl-4-hydroxytetrahydrofuran-2-yl)methoxy)(phenoxy)phosphoryl)amino)propanoate] | 0.067 µM | > 25 µM |  | 
17 | C#C[C@@]1(O)[C@H](O)[C@@H](COP(=O)(NC(C)(C)C(=O)OC(C)C)Oc2ccccc2)O[C@H]1n1ccc(=O)[nH]c1=O (single isomer, unassigned) [1.39 (peak 2)] |  | > 25 µM | 0.047 µM | 

Row | Structure (SMILES) | EC50 [1, 3] | CC50 (in vitro) | EC50 ([1]; read-out: HCV GT1b EC50) | other results
18 | C#C[C@@]12OC(=O)O[C@@H]1[C@@H](COP(=O)(N[C@@H](C)C(=O)OC(C)C)Oc1ccccc1)O[C@H]2n1ccc(=O)[nH]c1=O (stereo partly drawn) [Example 1.22, (2S)-isopropyl 2-(((((3aR,4R,6R,6aR)-6-(2,4-dioxo-3,4-dihydropyrimidin-1(2H)-yl)-6a-ethynyl-2-oxotetrahydrofuro[3,4-d][1,3]dioxol-4-yl)methoxy)(phenoxy)phosphoryl)amino)propanoate] | 0.108 µM | > 25 µM |  | 
19 | C#C[C@@]1(O)[C@H](O)[C@@H](COP(=O)(N[C@@H](C)C(=O)OC(CC)CC)Oc2ccccc2)O[C@H]1n1ccc(=O)[nH]c1=O (single isomer, unassigned) [1.16 (peak 2)] |  | > 25 µM | 0.056 µM | 
20 | C#C[C@@]1(O)[C@H](O)[C@@H](COP(=O)(N[C@@H](C)C(=O)OC)Oc2ccccc2)O[C@H]1n1ccc(=O)[nH]c1=O (single isomer, unassigned) [1.35 (peak 2)] | 0.194 µM | > 25 µM |  | 
21 | C#C[C@@]1(O)[C@H](O)[C@@H](COP(=O)(N[C@@H](C)C(=O)OCC)Oc2ccccc2)O[C@H]1n1ccc(=O)[nH]c1=O (single isomer, unassigned) [1.36 (peak 2)] | 0.096 µM | > 25 µM |  | 
22 | C#C[C@@]1(O)[C@H](O)[C@@H](COP(=O)(N[C@@H](C)C(=O)OCC(C)(C)OC)Oc2ccccc2)O[C@H]1n1ccc(=O)[nH]c1=O (single isomer, unassigned) [1.32 (peak 2)] |  | > 25 µM | 0.182 µM | 
23 | C#C[C@@]1(O)[C@H](O)[C@@H](COP(=S)(N[C@@H](C)C(=O)OC(C)C)Oc2ccccc2)O[C@H]1n1ccc(=O)[nH]c1=O (stereo partly drawn) [Example 1.19, (2S)-isopropyl 2-(((((2R,3R,4R,5R)-5-(2,4-dioxo-3,4-dihydropyrimidin-1(2H)-yl)-4-ethynyl-3,4-dihydroxytetrahydrofuran-2-yl)methoxy)(phenoxy)phosphorothioyl)amino)propanoate] | 0.036 µM |  |  | CC50 at 3 days (in vitro): > 25 µM
24 | C#C[C@@]1(O)[C@H](O)[C@@H](COP(=O)(N[C@@H](C)C(=O)OC(C)C)Oc2ccccc2)O[C@H]1n1ccc(=O)[nH]c1=O (single isomer, unassigned) [1.25 (peak 1)] | 0.358 µM | > 25 µM |  | 
25 | C#C[C@@]1(O)[C@H](O)[C@@H](COP(=O)(N[C@@H](C)C(=O)O[C@@H](C)CC)Oc2ccccc2)O[C@H]1n1ccc(=O)[nH]c1=O (single isomer, unassigned) [1.13 (peak 2)] |  | > 25 µM | 0.025 µM | 
26 | C#C[C@@]1(O)[C@H](O)[C@@H](COP(=O)(N[C@@H](CC(C)C)C(=O)OC(C)C)Oc2ccccc2)O[C@H]1n1ccc(=O)[nH]c1=O (single isomer, unassigned) [1.23 (peak 2)] |  | > 25 µM | 0.305 µM | 
27 | C#C[C@@]1(O)[C@H](O)[C@@H](COP(=O)(N[C@@H](C)C(=O)OC(C)C)Oc2ccccc2)O[C@H]1n1ccc(N)nc1=O (single isomer, unassigned) [1.30 (peak 2)] | 54.3 µM | > 25 µM |  | 
28 | C#C[C@@]1(O)[C@H](O)[C@@H](COP(=O)(N[C@@H](C)C(=O)OC2CCOCC2)Oc2ccccc2)O[C@H]1n1ccc(=O)[nH]c1=O (single isomer, unassigned) [1.14 (peak 2)] |  | > 25 µM | 0.459 µM | 
29 | C#C[C@@]1(O)[C@H](O)[C@@H](COP(=O)(N[C@@H](CCC)C(=O)OC(C)C)Oc2ccccc2)O[C@H]1n1ccc(=O)[nH]c1=O (single isomer, unassigned) [1.24 (peak 2)] |  | > 25 µM | 0.062 µM | 
30 | C#C[C@@]1(O)[C@H](O)[C@@H](COP(=O)(N[C@@H](C)C(=O)OCC(C)(C)C)Oc2ccccc2)O[C@H]1n1ccc(=O)[nH]c1=O (single isomer, unassigned) [1.33 (peak 2)] |  | > 25 µM | 0.994 µM | 
31 | C#C[C@@]1(O)[C@H](O)[C@@H](COP(=O)(O)N[C@@H](C)C(=O)O)O[C@H]1n1ccc(=O)[nH]c1=O [Example 1.40, (2S)-2-(((((2R,3R,4R,5R)-5-(2,4-dioxo-3,4-dihydropyrimidin-1(2H)-yl)-4-ethynyl-3,4-dihydroxytetrahydrofuran-2-yl)methoxy)(hydroxy)phosphoryl)amino)propanoic acid] |  | > 25 µM |  | EC50 ([1]; Hepatitis C virus, 72 h, GT1b replicon cells, 3 days, luciferase, read-out: HCV GT1b EC50): 0.148 µM
32 | C#C[C@@]1(O)[C@H](O)[C@@H](COP(=O)(N[C@@H](CC)C(=O)OC(C)C)Oc2ccccc2)O[C@H]1n1ccc(=O)[nH]c1=O (single isomer, unassigned) [1.38 (peak 2)] | 0.54 µM | > 25 µM |  | 
33 | C#C[C@@]1(O)[C@H](O)[C@@H](COP(=O)(NCCOC(=O)c2ccccc2)Oc2ccccc2)O[C@H]1n1ccc(=O)[nH]c1=O (single isomer, unassigned) [1.18 (peak 2)] | 0.089 µM | > 25 µM |  | 
34 | C#C[C@@]1(O)[C@H](O)[C@@H](COP(=O)(N[C@@H](C)C(=O)OC2CCCCC2)Oc2ccccc2)O[C@H]1n1ccc(=O)[nH]c1=O (stereo partly drawn) [Example 1.12, (2S)-cyclohexyl 2-(((((2R,3R,4R,5R)-5-(2,4-dioxo-3,4-dihydropyrimidin-1(2H)-yl)-4-ethynyl-3,4-dihydroxytetrahydrofuran-2-yl)methoxy)(phenoxy)phosphoryl)amino)propanoate] | 0.013 µM | > 25 µM |  | 
